Series [1] in a line: Rat pharmacokinetics, cassette dosing (IV and PO). Format: in vivo. The settings on record: rat, plasma, male SD rats. On the procedure:
Male SD rats were fasted overnight. Compounds of the invention were dissolved in dimethyl acetamide at 10 times the final concentration, then Solutol HS 15 (BASF) was added to a final concentration of 10%. Finally 80% saline was added and vortexed to achieve a clear solution. For the IV dosing three animals were injected via the foot dorsal vein with 1 mg/kg compound. For the PO dosing 5 mg/kg of compound was delivered by oral gavage. Blood was collected via the tail vein into K2EDTA tubes at 5 minutes, 15 minutes, 30 minutes, 1 hour, 2 hours, 4 hours, 8 hours and 24 hours after dosing. The blood was centrifuged at 2000 g for 5 minutes at 4° C. to obtain plasma. The plasma was extracted with acetonitrile and the level of compound was analyzed by LC/MS/MS. The level of compound in plasma was calculated from a standard curve in rat plasma. The IV clearance (L/h/kg) and area under the curve (h*ng/mL) were calculated using WinNonLin software. The dose adjusted area under the curve for the IV and oral dosing were used to calculate the oral bioavailability.
Pharmacokinetic properties were assessed in a rat cassette dosing experiment. The IV clearance (IV Clr.) is in units of L/hr/kg. The oral maximum plasma concentration (PO Cmax) is in units of ng/ml. The oral plasma half-life (PO T½) is in units of hours. The oral area under the curve (PO AUC) is in units of hours*ng/ml. The fraction absorbed by the oral route (F %) is a percentage of the oral area under the curve to the IV area under the curve, dose adjusted.

The target in the next series is HDAC1 (Homo sapiens (Human), UniProt Q13547). Description: HDAC enzyme assay HDAC1. Format: biochemical.
The next series has as its target HDAC2 (Homo sapiens (Human), UniProt Q92769). Nature of the series: HDAC enzyme assay HDAC2. Format: biochemical. On the procedure: Compounds for testing were diluted in DMSO to 50 fold the final concentration and a ten-point three-fold dilution series was made. The compounds were diluted in assay buffer (50 mM HEPES, pH 7.4, 100 mM KCl, 0.001% Tween-20, 0.05% BSA, 20 μM TCEP) to 6-fold their final concentration. The HDAC enzymes (purchased from BPS Biosciences) were diluted to 1.5-fold their final concentration in assay buffer. The tripeptide substrate and trypsin at 0.05 μM final concentration were diluted in assay buffer at 6-fold their final concentration. The final enzyme concentrations used in these assays were 3.3 ng/ml (HDAC1), 0.2 ng/ml (HDAC2) and 0.08 ng/ml (HDAC3). The final substrate concentrations used were 16 μM (HDAC1), 10 μM (HDAC2) and 17 μM (HDAC3).
Five μl of compounds and 20 μl of enzyme were added to wells of a black, opaque 384 well plate in duplicate. Enzyme and compound were incubated together at room temperature for 10 minutes. Five μl of substrate was added to each well, the plate was shaken for 60 seconds and placed into a Victor 2 microtiter plate reader. The development of fluorescence was monitored for 60 min and the linear rate of the reaction was calculated. The IC50 was determined using Graph Pad Prism by a four parameter curve fit.

The next series has as its target HDAC3 (Homo sapiens (Human), UniProt O15379). Description: HDAC enzyme assay HDAC3. Format: biochemical. The method, then:
Compounds for testing were diluted in DMSO to 50 fold the final concentration and a ten-point three-fold dilution series was made. The compounds were diluted in assay buffer (50 mM HEPES, pH 7.4, 100 mM KCl, 0.001% Tween-20, 0.05% BSA, 20 μM TCEP) to 6-fold their final concentration. The HDAC enzymes (purchased from BPS Biosciences) were diluted to 1.5-fold their final concentration in assay buffer. The tripeptide substrate and trypsin at 0.05 μM final concentration were diluted in assay buffer at 6-fold their final concentration. The final enzyme concentrations used in these assays were 3.3 ng/ml (HDAC1), 0.2 ng/ml (HDAC2) and 0.08 ng/ml (HDAC3). The final substrate concentrations used were 16 μM (HDAC1), 10 μM (HDAC2) and 17 μM (HDAC3). Five μl of compounds and 20 μl of enzyme were added to wells of a black, opaque 384 well plate in duplicate. Enzyme and compound were incubated together at room temperature for 10 minutes. Five μl of substrate was added to each well, the plate was shaken for 60 seconds and placed into a Victor 2 microtiter plate reader. The development of fluorescence was monitored for 60 min and the linear rate of the reaction was calculated. The IC50 was determined using Graph Pad Prism by a four parameter curve fit. In Table 4 below, letter designations are defined as follows: […]

HDAC2, sequence (Q92769 whole entry): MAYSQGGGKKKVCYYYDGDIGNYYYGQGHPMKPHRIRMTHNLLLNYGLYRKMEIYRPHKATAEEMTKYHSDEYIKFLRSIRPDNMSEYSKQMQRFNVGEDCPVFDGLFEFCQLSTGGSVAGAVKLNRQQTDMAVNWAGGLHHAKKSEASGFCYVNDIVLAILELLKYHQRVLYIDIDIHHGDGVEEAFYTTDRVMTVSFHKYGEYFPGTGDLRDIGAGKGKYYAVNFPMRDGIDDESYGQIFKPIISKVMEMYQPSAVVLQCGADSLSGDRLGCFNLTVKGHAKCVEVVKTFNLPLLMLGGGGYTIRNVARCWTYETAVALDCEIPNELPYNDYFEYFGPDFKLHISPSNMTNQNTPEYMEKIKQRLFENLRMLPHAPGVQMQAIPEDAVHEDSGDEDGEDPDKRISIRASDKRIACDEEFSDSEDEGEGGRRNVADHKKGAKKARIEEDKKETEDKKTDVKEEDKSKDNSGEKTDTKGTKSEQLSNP
HDAC1, sequence (Q13547 whole entry): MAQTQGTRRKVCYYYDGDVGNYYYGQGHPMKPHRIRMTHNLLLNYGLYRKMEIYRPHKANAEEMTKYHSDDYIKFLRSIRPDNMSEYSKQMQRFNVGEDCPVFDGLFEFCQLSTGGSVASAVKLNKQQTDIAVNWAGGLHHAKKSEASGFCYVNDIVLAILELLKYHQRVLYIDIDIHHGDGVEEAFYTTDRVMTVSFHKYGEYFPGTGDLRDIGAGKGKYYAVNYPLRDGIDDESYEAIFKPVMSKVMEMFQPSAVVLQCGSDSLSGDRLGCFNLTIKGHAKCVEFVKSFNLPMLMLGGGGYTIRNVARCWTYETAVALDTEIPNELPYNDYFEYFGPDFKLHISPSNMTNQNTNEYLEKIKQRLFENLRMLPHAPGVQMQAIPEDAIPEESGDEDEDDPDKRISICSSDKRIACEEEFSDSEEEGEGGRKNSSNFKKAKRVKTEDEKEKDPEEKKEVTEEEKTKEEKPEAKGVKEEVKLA
HDAC3, sequence (O15379 whole entry): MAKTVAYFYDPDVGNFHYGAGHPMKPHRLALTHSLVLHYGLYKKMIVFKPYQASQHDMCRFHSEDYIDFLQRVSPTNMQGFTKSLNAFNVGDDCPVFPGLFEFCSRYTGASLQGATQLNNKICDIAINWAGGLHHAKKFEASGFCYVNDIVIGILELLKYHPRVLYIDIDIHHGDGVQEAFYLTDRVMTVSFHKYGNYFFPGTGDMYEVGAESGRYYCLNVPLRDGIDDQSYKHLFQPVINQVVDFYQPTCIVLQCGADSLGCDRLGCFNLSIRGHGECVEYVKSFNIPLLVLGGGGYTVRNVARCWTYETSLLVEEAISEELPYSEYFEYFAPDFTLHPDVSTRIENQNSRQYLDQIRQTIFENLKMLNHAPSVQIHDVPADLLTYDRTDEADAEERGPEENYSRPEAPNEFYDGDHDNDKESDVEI
HDAC3, sequence (Q9Y618 395-489 partner): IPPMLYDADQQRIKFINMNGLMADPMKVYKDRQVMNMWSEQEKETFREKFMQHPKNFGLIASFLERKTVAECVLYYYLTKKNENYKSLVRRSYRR

What is called bioavailability is the share of a dose that reaches the circulation, judged against a reference dose that is usually intravenous. A word on the AUC: it is the area under the concentration-time curve, a measure of exposure. What is called Cmax is the peak of the concentration-time curve. Broadly, the IC50 is the concentration that gives 50% inhibition. High values mean a need for much substance, low ones inhibition by little substance. For the compound `Nc1ccc(-c2ccc(F)cc2)cc1NC(=O)c1ccc2nc(N3CCNCC3)ccc2c1` [Compound 035], the bioavailability in series [1] (5 mg/kg, oral AUC to IV AUC, dose adjusted) was determined as 70.5%. In series [1] (IV 1 mg/kg), this compound had an IV clearance of 2.83 mL/min/kg. Besides, the AUC in series [1] (PO 5 mg/kg) was 20200 ng·h/mL. The Cmax in series [1] (PO 5 mg/kg) came to 1870 ng/mL. In series [1] (PO 5 mg/kg, read-out: PO T½ (converted)), the half-life was 4.4 h. In addition, the IC50 is under 10 nM at HDAC1, 10 to 500 nM at HDAC2 and 10 to 500 nM at HDAC3.

On to `Nc1ccc(-c2ccco2)cc1NC(=O)c1cnc(N2CCNCC2)o1` [Compound 061], for which the IC50 against HDAC1, on HDAC2 and on HDAC3 was over 500 nM each time.

`Nc1ccc(-c2ccccn2)cc1NC(=O)c1ccc(N2CCNCC2)nc1` [Compound 073]: the figures for the IC50 against HDAC1, at HDAC2 and at HDAC3 were 10 to 500 nM, 10 to 500 nM and over 500 nM, respectively.

As to `Nc1ccc(-c2cccs2)cc1NC(=O)c1cnc(N2CCNCC2)o1` [Compound 060], the IC50 at HDAC1, on HDAC2 and on HDAC3 was over 500 nM in each case.

In the case of `Nc1ccc(-c2ccoc2)cc1NC(=O)c1nc(N2CCNCC2)cs1` [Compound 056], the IC50 on HDAC1 is 10 to 500 nM; on HDAC2, 10 to 500 nM; at HDAC3, over 500 nM.

Consider `Nc1ccc(-c2ccco2)cc1NC(=O)c1cnc(N2CCNCC2)s1` [Compound 034], for which the IC50 was under 10 nM against HDAC1, 10 to 500 nM against HDAC2 and 10 to 500 nM against HDAC3.

In the case of `Nc1ccc(-c2ccco2)cc1NC(=O)c1cnc(N2CCNCC2)cn1` [Compound 087], the concentration for half-maximal inhibition (IC50) on HDAC1 was under 10 nM; at HDAC2, 10 to 500 nM; at HDAC3, 10 to 500 nM.

Take `Nc1ccc(-c2ccncc2)cc1NC(=O)c1ncc(N2CCNCC2)s1` [Compound 052]: the figures for the IC50 at HDAC1, on HDAC2 and at HDAC3 were under 10 nM, 10 to 500 nM and 10 to 500 nM, respectively.

As for `CN1CCN(c2ncc(C(=O)Nc3cc(-c4ccccc4)ccc3N)s2)CC1` [Compound 048], the results for the IC50 against HDAC1, against HDAC2 and against HDAC3 were under 10 nM, 10 to 500 nM and over 500 nM, respectively.

With `Nc1ccc(-c2cccc(F)c2)cc1NC(=O)c1ccc(N2CCNCC2)nc1` [Compound 077], the IC50 against HDAC1, against HDAC2 and against HDAC3 was 10 to 500 nM each time.

As to `CN1CCN(c2ccc(C(=O)Nc3cc(-c4ccco4)ccc3N)nc2)CC1` [Compound 082], the values for the IC50 at HDAC1, on HDAC2 and at HDAC3 were under 10 nM, 10 to 500 nM and 10 to 500 nM, respectively.

As for `Nc1ccc(-c2ccc(F)cc2)cc1NC(=O)c1cnc(N2CCNCC2)cn1` [Compound 090], the IC50 against HDAC1 was under 10 nM; against HDAC2 it was 10 to 500 nM; against HDAC3, 10 to 500 nM.

For `CN1CCN(c2cnc(C(=O)Nc3cc(-c4cccs4)ccc3N)cn2)CC1` [Compound 086], the IC50 at HDAC1 is under 10 nM; at HDAC2, under 10 nM; against HDAC3, 10 to 500 nM.

For the compound `Nc1ccc(-c2ccoc2)cc1NC(=O)c1cnc(N2CCNCC2)cn1` [Compound 088], the IC50 against HDAC1 was under 10 nM; on HDAC2 it was 10 to 500 nM; on HDAC3, 10 to 500 nM.

Regarding `CN1CCN(c2cnc(C(=O)Nc3cc(-c4ccco4)ccc3N)s2)CC1` [Compound 054], the figures for the IC50 at HDAC1, at HDAC2 and at HDAC3 were under 10 nM, 10 to 500 nM and 10 to 500 nM, respectively.

In the case of `Nc1ccc(-c2cccnc2)cc1NC(=O)c1ccc(N2CCNCC2)nc1` [Compound 072], the IC50 against HDAC1, against HDAC2 and on HDAC3 was 10 to 500 nM each time.

As to `Nc1ccc(-c2ccccc2)cc1NC(=O)c1cnc(N2CCNCC2)o1` [Compound 062], the IC50 at HDAC1, on HDAC2 and against HDAC3 was over 500 nM each time.

With `Nc1ccc(-c2cccs2)cc1NC(=O)c1csc(N2CCNCC2)n1` [Compound 059], the half-maximal inhibitory concentration (IC50) on HDAC1 was over 500 nM; against HDAC2, 10 to 500 nM; against HDAC3, 10 to 500 nM.

On to `Nc1ccc(-c2cccnc2)cc1NC(=O)c1cnc(N2CCNCC2)s1` [Compound 045], for which the IC50 at HDAC1, on HDAC2 and against HDAC3 was 10 to 500 nM each time.

For `Nc1ccc(-c2ccccc2)cc1NC(=O)c1cc(N2CCNCC2)cs1` [Compound 069], the values for the IC50 at HDAC1, against HDAC2 and at HDAC3 were 10 to 500 nM, 10 to 500 nM and over 500 nM, respectively.

For the compound `Nc1ccc(-c2cc(F)cc(F)c2)cc1NC(=O)c1ccc(N2CCNCC2)nc1` [Compound 078], the concentration for half-maximal inhibition (IC50) at HDAC1 is over 500 nM; at HDAC2, 10 to 500 nM; against HDAC3, over 500 nM.

With `Nc1ccc(-c2ccccc2)cc1NC(=O)c1cnc(N2CCNCC2)cn1` [Compound 085], the values for the IC50 against HDAC1, at HDAC2 and on HDAC3 were under 10 nM, 10 to 500 nM and 10 to 500 nM, respectively.

In the case of `CN1CCN(c2ccc(C(=O)Nc3cc(-c4ccoc4)ccc3N)cn2)CC1` [Compound 075], the IC50 against HDAC1 is under 10 nM; at HDAC2 it was 10 to 500 nM; against HDAC3, 10 to 500 nM.

`Nc1ccc(-c2ccc(F)cc2)cc1NC(=O)c1cnc(N2CCNCC2)o1` [Compound 063]: the IC50 against HDAC1, against HDAC2 and against HDAC3 was over 500 nM in each case.

As for `Nc1ccc(-c2ccc(F)cc2)cc1NC(=O)c1cnc(N2CCNCC2)s1` [Compound 037], the results for the IC50 at HDAC1, at HDAC2 and on HDAC3 were under 10 nM, 10 to 500 nM and 10 to 500 nM, respectively.

For `Nc1ccc(-c2ccco2)cc1NC(=O)c1nc(N2CCNCC2)cs1` [Compound 055], the IC50 at HDAC1 was over 500 nM; on HDAC2, 10 to 500 nM; on HDAC3, over 500 nM.

On to `Nc1ccc(-c2ccccn2)cc1NC(=O)c1cnc(N2CCNCC2)s1` [Compound 044], for which the IC50 is 10 to 500 nM against HDAC1, 10 to 500 nM on HDAC2 and over 500 nM against HDAC3.

Consider `Nc1ccc(-c2ccc(F)cc2)cc1NC(=O)c1ccc(N2CCNCC2)s1` [Compound 068], for which the half-inhibitory concentration (IC50) against HDAC1 was under 10 nM; on HDAC2 it was 10 to 500 nM; at HDAC3, 10 to 500 nM.

On to `CN1CCN(c2ccc(C(=O)Nc3cc(-c4ccoc4)ccc3N)nc2)CC1` [Compound 083], for which the IC50 against HDAC1 was under 10 nM; against HDAC2, 10 to 500 nM; against HDAC3 it was 10 to 500 nM.

On to `Nc1ccc(-c2ccccc2)cc1NC(=O)c1cnc(N2CCNCC2)s1` [Compound 047], for which the IC50 against HDAC1 was under 10 nM; at HDAC2 it was 10 to 500 nM; against HDAC3 it was over 500 nM.

On to `Cc1nc(C(=O)Nc2cc(-c3ccoc3)ccc2N)sc1N1CCNCC1` [Compound 043], for which the IC50 against HDAC1 is under 10 nM; on HDAC2 it was 10 to 500 nM; on HDAC3 it was over 500 nM.

Turning to `Nc1ccc(-c2ccncc2)cc1NC(=O)c1nc(N2CCNCC2)cs1` [Compound 057], the 50% inhibitory concentration (IC50) was over 500 nM on HDAC1, 10 to 500 nM against HDAC2 and over 500 nM against HDAC3.

In the case of `Nc1ccc(-c2ccco2)cc1NC(=O)c1ccc(N2CCNCC2)s1` [Compound 065], the results for the IC50 at HDAC1, at HDAC2 and against HDAC3 were under 10 nM, 10 to 500 nM and 10 to 500 nM, respectively.

The record behind these values is patent US10385031B2, “Substituted piperazines as selective HDAC1,2 inhibitors” (Regenacy Pharmaceuticals, LLC, priority 2016, dated 2019).
